From patent US20170027954A1, “METHODS OF ENHANCING ANTIBODY-DEPENDENT CELLULAR CYTOTOXICITY” (VENTIRX PHARMACEUTICALS, INC., priority 2010, published 2017)

Legend:
Format in all cases: cell-based, human
K562 target cells = experiment: NK assay: lysis of Calcein AM labeled K562 target cells by PBMCs stimulated with the ADCC enhancer; conditions: FIG. 1
Description: Stimulation of PBMCs: Human Peripheral blood mononuclear cells (PBMCs) were isolated by Ficoll™ density gradient centrifugation and resuspended in RPMI containing 2% heat-inactivated FBS. PBMCs at a concentration of 1 to 3 million cells per mL were incubated with 10-500 nM ADCC enhancer in a humidified CO2 incubator for 18-72 hrs. Activated PBMCs were then used as effector cells in NK and ADCC assays. NK and ADCC Assays: PBMCs activated with the ADCC enhancer were tested for the ability to enhance killing of the NK sensitive target cell line K562 or various tumor cells coated with monoclonal antibodies. Target cells were labeled with the fluorescent dye Calcein AM for 1 hour at 37° C. in a dark humidified CO2 incubator. […] Activated effector cells and labeled target cells were incubated in 96-well tissue culture plates at for 4 hours at 37° C. in a dark humidified CO2 incubator in an assay buffer containing HBSS+Ca/Mg+5% FBS. […] Fluorecence was quantified with a fluorescent microtiter plate reader. The % specific lysis was calculated as (Sample fluorescence-spontaneous fluorescence)*100/(100% fluorescence-spontaneous). 100% fluorescence was determined from wells that contained labeled target cells and detergent such at 0.1% Tween-20 or Triton X-100. Spontaneous fluorescence was determined from wells that contained assay buffer and target cells but not effector cells. […]

[1] = test system: breast cancer cell line SKBR3; experiment: Herceptin-mediated ADCC of SKBR3 cells by PBMC effector cells; conditions: PBMCs activated with the ADCC enhancer; FIG. 3
Description: (§1) Stimulation of PBMCs: Human Peripheral blood mononuclear cells (PBMCs) were isolated by Ficoll™ density gradient centrifugation and resuspended in RPMI containing 2% heat-inactivated FBS. PBMCs at a concentration of 1 to 3 million cells per mL were incubated with 10-500 nM ADCC enhancer in a humidified CO2 incubator for 18-72 hrs. Activated PBMCs were then used as effector cells in NK and ADCC assays. NK and ADCC Assays: PBMCs activated with the ADCC enhancer were tested for the ability to enhance killing of the NK sensitive target cell line K562 or various tumor cells coated with monoclonal antibodies. Target cells were labeled with the fluorescent dye Calcein AM for 1 hour at 37° C. in a dark humidified CO2 incubator. […] Activated effector cells and labeled target cells were incubated in 96-well tissue culture plates at for 4 hours at 37° C. in a dark humidified CO2 incubator in an assay buffer containing HBSS+Ca/Mg+5% FBS. […] Fluorecence was quantified with a fluorescent microtiter plate reader. The % specific lysis was calculated as (Sample fluorescence-spontaneous fluorescence)*100/(100% fluorescence-spontaneous). 100% fluorescence was determined from wells that contained labeled target cells and detergent such at 0.1% Tween-20 or Triton X-100. Spontaneous fluorescence was determined from wells that contained assay buffer and target cells but not effector cells.

[2] = test system: breast cancer cell line MDA-MB-231; experiment: Herceptin-mediated ADCC of MDA-MB-231 cells by PBMC effector cells; conditions: PBMCs activated with the ADCC enhancer; FIG. 3
Description: as §1

[3] = test system: rituximab-coated HS-Sultan cells; experiment: Rituximab-mediated ADCC of HS-Sultan cells with PBMCs from FcγR-genotyped donors; conditions: for rituximab-mediated ADCC, specific lysis: ratio 100:1, FIG. 5; for baseline ADCC (percent specific lysis): buffer control
Description: Percent specific lysis is shown for Rituxan-coated HS-Sultan cells incubated with PBMC effector cells at an E:T ratio of 50:1. PBMCs from a patient with the high affinity genotype FcgR2a131 H/H and FcgR3a V/V (solid rectangles) or a patient with the lower affinity genotype FcgR2a131 […] and FcgR3a V/F (open rectangles) were evaluated for ADCC after stimulation with buffer control (baseline) or stimulation with 500 nM ADCC enhancer.
ADCC is mediated through immune effector cells included NK cells that engage the Fc portion of the monoclonal antibody through specific receptors. Patients with single nucleotide polymorphisms in these receptors such as FcRgamma3a position 158 and FcRgamma2a position 131 have a poorer clinical prognosis presumably from poor ADCC due to a lower affinity of the receptor for the monoclonal antibody. […] To determine if this common polymorphism affects the baseline antibody-dependent cellular cytoxicity (ADCC) response and/or response to the ADCC enhancer molecule of the present invention (Compound VTX-2337), PBMCs from donors were genotyped for the two alleles encoding the F and V isoforms, respectively, and tested in vitro. We analyzed rituximab-mediated ADCC using unstimulated PBMC or VTX-2337-stimulated PBMC from 15 donors, including 10 donors with FF or FV phenotype and 5 donors with VV phenotype.
Blood was collected from healthy donors and PBMCs were isolated using a Ficoll gradient. PBMCs were activated by culturing them in the presence of 500 nM VTX-2337 at 37° C. in a humidified 5%CO2 incubator for 48 hours. Activated PBMCs were then incubated with rituximab-coated HS-Sultan cells loaded at a ratio of 100:1 for 4 hours. Lysis was determined by measuring release of the fluorescent dye Calcein AM from the HS-Sultan cells.

Row | Compound | lysis of K562 target cells (K562 target cells; PBMCs stimulated with 167 nM ADCC enhancer) | lysis of K562 target cells (K562 target cells; PBMCs stimulated with 500 nM ADCC enhancer) | cell killing of Herceptin coated SKBR3 cells [1] [%] | cell killing of Herceptin coated MDA-MB-231 cells [2] | rituximab-mediated ADCC, specific lysis ([3]; PBMC from high affinity VV donors stimulated with 500 nM VTX-2337 for 48 hours) [%] | rituximab-mediated ADCC, specific lysis ([3]; PBMC from low affinity FF/FV donors stimulated with 500 nM VTX-2337 for 48 hours) [%] | ADCC (percent specific lysis) ([3]; patient with low affinity genotype, PBMCs stimulated with 500 nM ADCC enhancer, Rituxan-coated targets, E:T 50:1, FIG. 4) [%] | baseline ADCC (percent specific lysis) ([3]; patient with high affinity genotype, E:T 50:1, FIG. 4) | baseline ADCC (percent specific lysis) ([3]; patient with lower affinity genotype, E:T 50:1, FIG. 4) [%] | rituximab-mediated ADCC, specific lysis ([3]; unstimulated PBMC from FF/FV donors) [%] | rituximab-mediated ADCC, specific lysis ([3]; unstimulated PBMC from VV donors) [%]
1 | CCCN(CCC)C(=O)C1=Cc2ccc(-c3ccc(C(=O)N4CCCC4)cc3)cc2N=C(N)C1 [ADCC enhancer, {2-amino-8-[4-(pyrrolidinylcarbonyl)phenyl]-(3H-benzo[f]azepin-4-yl)}-N,N-dipropylcarboxamide] | up to 45% | greater than 90% | > 80 | 40-60% | 55.5±2.6 | 40.0±4.1 | 30 |  |  |  | 
2 | Rituxan: monoclonal antibody against the protein CD20 |  |  |  |  |  |  |  | approximately 30% | 10 | 20.5±2.5 | 31.7±2.9
